Experimental data reported in ChEMBL document CHEMBL1142512, “Synthesis, in vitro, and in silico evaluation of organometallic technetium and rhenium thymidine complexes with retained substrate activity toward human thymidine kinase type 1” (J Med Chem, 2008).

Experiments:
[1] = biological target: T1, Thymidine kinase, cytosolic (Homo sapiens) (UniProt P04183); assay: Inhibition of human recombinant TK1 phosphorylation after 15 mins by pyruvate kinase/lactate dehydrogenase coupled assay relative to thymidine
T1 sequence (whole entry): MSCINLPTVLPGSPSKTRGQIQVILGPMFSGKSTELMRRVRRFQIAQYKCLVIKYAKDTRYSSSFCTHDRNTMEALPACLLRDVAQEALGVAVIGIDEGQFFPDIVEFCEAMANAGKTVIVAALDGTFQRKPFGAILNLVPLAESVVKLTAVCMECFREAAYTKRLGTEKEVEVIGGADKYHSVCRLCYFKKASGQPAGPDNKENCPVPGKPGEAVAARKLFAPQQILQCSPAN

SK-N-MC = assay: Drug uptake in human SK-N-MC cells at 111 kBq after 2 hrs by […]; format: ADME, cell-based

inhibition [1] [%] | Compound | Drug uptake (SK-N-MC) [%ID/mg/ml]
86.7 | C#CCn1c(=O)c(C)cn([C@H]2C[C@H](O)[C@@H](CO)O2)c1=O | –
– | [3H]C([3H])([3H])c1cn([C@H]2C[C@H](O)[C@@H](CO)O2)c(=O)[nH]c1=O | 29
